This note sets out measurements from patent US8796289B2 (AbbVie Inc., priority 2011, dated 2014).

Usually Ki stands for a dissociation constant, usually derived from enzyme kinetics or from competition with a known ligand. Read a high Ki as a looser hold on the target.

Sequence of GST-tagged-Wee1 kinase (P30291 whole entry): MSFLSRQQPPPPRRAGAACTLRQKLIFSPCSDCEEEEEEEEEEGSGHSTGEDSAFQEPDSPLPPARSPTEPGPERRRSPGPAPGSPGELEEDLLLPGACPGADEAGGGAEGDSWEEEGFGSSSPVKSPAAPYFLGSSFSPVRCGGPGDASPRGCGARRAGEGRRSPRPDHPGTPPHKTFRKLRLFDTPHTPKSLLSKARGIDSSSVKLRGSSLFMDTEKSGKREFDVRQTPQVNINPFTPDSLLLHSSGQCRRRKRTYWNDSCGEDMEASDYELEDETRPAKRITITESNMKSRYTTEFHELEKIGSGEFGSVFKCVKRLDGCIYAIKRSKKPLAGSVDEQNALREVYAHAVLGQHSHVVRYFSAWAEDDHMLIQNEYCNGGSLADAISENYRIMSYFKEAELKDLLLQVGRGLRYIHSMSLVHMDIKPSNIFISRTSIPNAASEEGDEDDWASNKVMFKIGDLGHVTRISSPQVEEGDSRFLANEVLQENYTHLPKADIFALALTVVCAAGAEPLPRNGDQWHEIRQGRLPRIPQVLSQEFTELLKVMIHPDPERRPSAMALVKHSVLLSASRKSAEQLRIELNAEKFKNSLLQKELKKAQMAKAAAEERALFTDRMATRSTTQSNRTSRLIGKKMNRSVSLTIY

The target in this assay is GST-tagged-Wee1 kinase (Homo sapiens, UniProt P30291). Description: Wee1 time-resolved fluorescence equilibrium binding assay (displacement of Oregon Green-labeled ATP-competitive kinase probe). How it is done:
Wee1 kinase was assayed using a time-resolved fluorescence equilibrium binding assay monitoring displacement of a rapidly reversible Oregon Green-labeled ATP-competitive kinase probe (N-(2-(2-(2-(4-(4-(5-chloro-4-(2-(1-hydroxycyclobutyl)thiazol-5-yl)-1H-pyrrolo[2,3-b]pyridin-2-yl)phenyl)piperazin-1-yl)ethoxy)ethoxy)ethyl)-2′,7′-difluoro-3′,6′-dihydroxy-3-oxo-3H-spiro[isobenzofuran-1,9′-xanthene]-5-carboxamide) by competitive Wee1 inhibitors.
`CNC(C)c1cccc(-c2nn(-c3c(Cl)cccc3Cl)c(=O)c3cnc(Nc4ccc(N5CCN(C)CC5)cc4)nc23)c1` (stereo not drawn) [Example 186, 6-(2,6-dichlorophenyl)-8-{3-[1-(methylamino)ethyl]phenyl}-2-{[4-(4-methylpiperazin-1-yl)phenyl]amino}pyrimido[4,5-d]pyridazin-5(6H)-one]: the Ki came to 0.02 nM.
The molecule `CN1CCN(c2ccc(Nc3ncc4c(=O)n(C)nc(C5CC(F)(F)C5)c4n3)cc2)CC1` [Example 187, 8-(3,3-difluorocyclobutyl)-6-methyl-2-{[4-(4-methylpiperazin-1-yl)phenyl]amino}pyrimido[4,5-d]pyridazin-5(6H)-one] showed an inhibition constant (Ki) of 1800 nM.
With `COC(=O)c1cccc(-c2nn(-c3c(Cl)cccc3Cl)c(=O)c3cnc(Nc4ccc(N5CCN(C)CC5)cc4)nc23)c1` [Example 188, methyl 3-[6-(2,6-dichlorophenyl)-2-{[4-(4-methylpiperazin-1-yl)phenyl]amino}-5-oxo-5,6-dihydropyrimido[4,5-d]pyridazin-8-yl]benzoate], the affinity corresponds to a Ki of 1 nM. Against the preceding molecule, the Ki is about 1800-fold lower.
For the molecule `CN1CCN(c2ccc(Nc3ncc4c(=O)n(-c5c(Cl)cccc5Cl)nc(-c5cccc(C(=O)N(C)C)c5)c4n3)cc2)CC1` [Example 189, 3-[6-(2,6-dichlorophenyl)-2-{[4-(4-methylpiperazin-1-yl)phenyl]amino}-5-oxo-5,6-dihydropyrimido[4,5-d]pyridazin-8-yl]-N,N-dimethylbenzamide], affinity was put at a Ki of 0.02 nM.
The molecule `CN1CCN(c2ccc(Nc3ncc4c(=O)n(-c5c(Cl)cccc5Cl)nc(-c5cccc(C(=O)O)c5)c4n3)cc2)CC1` [Example 190, 3-[6-(2,6-dichlorophenyl)-2-{[4-(4-methylpiperazin-1-yl)phenyl]amino}-5-oxo-5,6-dihydropyrimido[4,5-d]pyridazin-8-yl]benzoic acid] came in with a Ki of 0.01 nM.
`CNC(=O)c1cccc(-c2nn(-c3c(Cl)cccc3Cl)c(=O)c3cnc(Nc4ccc(N5CCN(C)CC5)cc4)nc23)c1` [Example 191, 3-[6-(2,6-dichlorophenyl)-2-{[4-(4-methylpiperazin-1-yl)phenyl]amino}-5-oxo-5,6-dihydropyrimido[4,5-d]pyridazin-8-yl]-N-methylbenzamide] showed a Ki of 0.03 nM.
`CN1CCN(C(=O)c2cccc(-c3nn(-c4c(Cl)cccc4Cl)c(=O)c4cnc(Nc5ccc(N6CCN(C)CC6)cc5)nc34)c2)CC1` [Example 192, 6-(2,6-dichlorophenyl)-8-{3-[(4-methylpiperazin-1-yl)carbonyl]phenyl}-2-{[4-(4-methylpiperazin-1-yl)phenyl]amino}pyrimido[4,5-d]pyridazin-5(6H)-one] returned an inhibitory constant (Ki) of 0.02 nM.
As for `CN1CCN(c2ccc(Nc3ncc4c(=O)n(-c5c(Cl)cccc5Cl)nc(-c5cccc(C(=O)N6CCCCC6)c5)c4n3)cc2)CC1` [Example 194, 6-(2,6-dichlorophenyl)-2-{[4-(4-methylpiperazin-1-yl)phenyl]amino}-8-[3-(piperidin-1-ylcarbonyl)phenyl]pyrimido[4,5-d]pyridazin-5(6H)-one], the figure is < 1 nM.
`C=CCn1nc(C2CC(F)(F)C2)c2nc(Nc3ccc(N4CCN(C)CC4)cc3)ncc2c1=O` [Example 196, 8-(3,3-difluorocyclobutyl)-2-{[4-(4-methylpiperazin-1-yl)phenyl]amino}-6-(prop-2-en-1-yl)pyrimido[4,5-d]pyridazin-5(6H)-one] yielded an inhibition constant Ki of 230 nM. In other words, the sub-micromolar range.
Molecule `CN1CCN(c2ccc(Nc3ncc4c(=O)n(-c5ccccn5)nc(C5CC(F)(F)C5)c4n3)cc2)CC1` [Example 197, 8-(3,3-difluorocyclobutyl)-2-{[4-(4-methylpiperazin-1-yl)phenyl]amino}-6-(pyridin-2-yl)pyrimido[4,5-d]pyridazin-5(6H)-one] returned a Ki of 100 nM.
For `CN1CCN(c2ccc(Nc3ncc4c(=O)n(-c5ccccc5F)nc(C5CC(F)(F)C5)c4n3)cc2)CC1` [Example 198, 8-(3,3-difluorocyclobutyl)-6-(2-fluorophenyl)-2-{[4-(4-methylpiperazin-1-yl)phenyl]amino}pyrimido[4,5-d]pyridazin-5(6H)-one] the value was 25 nM; for `CN1CCN(c2ccc(Nc3ncc4c(=O)n(-c5cccc(F)c5)nc(C5CC(F)(F)C5)c4n3)cc2)CC1` [Example 199, 8-(3,3-difluorocyclobutyl)-6-(3-fluorophenyl)-2-{[4-(4-methylpiperazin-1-yl)phenyl]amino}pyrimido[4,5-d]pyridazin-5(6H)-one], 82 nM; for `CN1CCN(c2ccc(Nc3ncc4c(=O)n(-c5c(Cl)cccc5Cl)nc(-c5cnn(CCCl)c5)c4n3)cc2)CC1` [Example 200, 8-[1-(2-chloroethyl)-1H-pyrazol-4-yl]-6-(2,6-dichlorophenyl)-2-{[4-(4-methylpiperazin-1-yl)phenyl]amino}pyrimido[4,5-d]pyridazin-5(6H)-one], 0.3 nM.
As for `C=Cn1cc(-c2nn(-c3c(Cl)cccc3Cl)c(=O)c3cnc(Nc4ccc(N5CCN(C)CC5)cc4)nc23)cn1` [Example 201, 6-(2,6-dichlorophenyl)-8-(1-ethenyl-1H-pyrazol-4-yl)-2-{[4-(4-methylpiperazin-1-yl)phenyl]amino}pyrimido[4,5-d]pyridazin-5(6H)-one], the figure is 0.2 nM.
For `CCNCCn1cc(-c2nn(-c3c(Cl)cccc3Cl)c(=O)c3cnc(Nc4ccc(N5CCN(C)CC5)cc4)nc23)cn1` [Example 202, 6-(2,6-dichlorophenyl)-8-{1-[2-(ethylamino)ethyl]-1H-pyrazol-4-yl}-2-{[4-(4-methylpiperazin-1-yl)phenyl]amino}pyrimido[4,5-d]pyridazin-5(6H)-one], the Ki came to 0.3 nM.
Molecule `CN1CCN(c2ccc(Nc3ncc4c(=O)n(-c5c(Cl)cccc5Cl)nc(-c5cncn5C)c4n3)cc2)CC1` [Example 203, 6-(2,6-dichlorophenyl)-8-(1-methyl-1H-imidazol-5-yl)-2-{[4-(4-methylpiperazin-1-yl)phenyl]amino}pyrimido[4,5-d]pyridazin-5(6H)-one] showed a Ki of 0.2 nM. The Ki values of the last two molecules are within 1.5-fold of each other.
The molecule `CN(C)Cc1ccc(Nc2ncc3c(=O)n(-c4ccccc4Cl)nc(-c4ccccc4)c3n2)cc1` [Example 204, 6-(2-chlorophenyl)-2-({4-[(dimethylamino)methyl]phenyl}amino)-8-phenylpyrimido[4,5-d]pyridazin-5(6H)-one] displayed a Ki of 2 nM.
As for `Cc1cc(Nc2ncc3c(=O)n(-c4ccccc4Cl)nc(-c4ccccc4)c3n2)ccc1N1CCN(C(C)C)CC1` [Example 205, 6-(2-chlorophenyl)-2-({3-methyl-4-[4-(propan-2-yl)piperazin-1-yl]phenyl}amino)-8-phenylpyrimido[4,5-d]pyridazin-5(6H)-one], the figure is 0.2 nM.
`Cc1cc(Nc2ncc3c(=O)n(-c4ccccc4Cl)nc(-c4ccccc4)c3n2)ccc1N1CCCN(C(C)C)CC1` [Example 206, 6-(2-chlorophenyl)-2-({3-methyl-4-[4-(propan-2-yl)-1,4-diazepan-1-yl]phenyl}amino)-8-phenylpyrimido[4,5-d]pyridazin-5(6H)-one] came in with a Ki of 0.2 nM.
For `COc1cc(Nc2ncc3c(=O)n(-c4ccccc4Cl)nc(-c4ccccc4)c3n2)ccc1N1CCN(C(C)C)CC1` [Example 207, 6-(2-chlorophenyl)-2-({3-methoxy-4-[4-(propan-2-yl)piperazin-1-yl]phenyl}amino)-8-phenylpyrimido[4,5-d]pyridazin-5(6H)-one] the value was 0.1 nM.
For `Cc1ccccc1-n1nc(-c2cccs2)c2nc(Nc3ccc(CN(C)C)cc3)ncc2c1=O` [Example 208, 2-({4-[(dimethylamino)methyl]phenyl}amino)-6-(2-methylphenyl)-8-(thiophen-2-yl)pyrimido[4,5-d]pyridazin-5(6H)-one] the value was 2 nM.
For `CN(C)Cc1ccc(Nc2ncc3c(=O)n(-c4ccccc4Cl)nc(-c4cccs4)c3n2)cc1` [Example 209, 6-(2-chlorophenyl)-2-({4-[(dimethylamino)methyl]phenyl}amino)-8-(thiophen-2-yl)pyrimido[4,5-d]pyridazin-5(6H)-one] the value was 0.8 nM; for `C=CCn1nc(-c2cccs2)c2nc(Nc3ccc(CN(C)C)cc3)ncc2c1=O` [Example 210, 2-({4-[(dimethylamino)methyl]phenyl}amino)-6-(prop-2-en-1-yl)-8-(thiophen-2-yl)pyrimido[4,5-d]pyridazin-5(6H)-one], 33 nM; for `CNCCn1cc(-c2nn(-c3c(Cl)cccc3Cl)c(=O)c3cnc(Nc4ccc(N5CCN(C)CC5)cc4)nc23)cn1` [Example 211, 6-(2,6-dichlorophenyl)-8-{1-[2-(methylamino)ethyl]-1H-pyrazol-4-yl}-2-{[4-(4-methylpiperazin-1-yl)phenyl]amino}pyrimido[4,5-d]pyridazin-5(6H)-one], 0.6 nM.
In turn, `CN(C)CCn1cc(-c2nn(-c3c(Cl)cccc3Cl)c(=O)c3cnc(Nc4ccc(N5CCN(C)CC5)cc4)nc23)cn1` [Example 212, 6-(2,6-dichlorophenyl)-8-{1-[2-(dimethylamino)ethyl]-1H-pyrazol-4-yl}-2-{[4-(4-methylpiperazin-1-yl)phenyl]amino}pyrimido[4,5-d]pyridazin-5(6H)-one] gave a Ki of 0.6 nM. In other words, the sub-nanomolar range.
`CN1CCN(c2ccc(Nc3ncc4c(=O)n(-c5c(Cl)cccc5Cl)nc(-c5cnn(CCN6CCCCC6)c5)c4n3)cc2)CC1` [Example 213, 6-(2,6-dichlorophenyl)-2-{[4-(4-methylpiperazin-1-yl)phenyl]amino}-8-{1-[2-(piperidin-1-yl)ethyl]-1H-pyrazol-4-yl}pyrimido[4,5-d]pyridazin-5(6H)-one]: the Ki turned out to be 0.6 nM. That is a sub-nanomolar value.
For `CN1CCN(CCn2cc(-c3nn(-c4c(Cl)cccc4Cl)c(=O)c4cnc(Nc5ccc(N6CCN(C)CC6)cc5)nc34)cn2)CC1` [Example 214, 6-(2,6-dichlorophenyl)-8-{1-[2-(4-methylpiperazin-1-yl)ethyl]-1H-pyrazol-4-yl}-2-{[4-(4-methylpiperazin-1-yl)phenyl]amino}pyrimido[4,5-d]pyridazin-5(6H)-one] the value was 0.4 nM.
